Tested on: MOLM-13 cells
Experiment: MOLM-13 Cell Proliferation Assay (indicator of DHODH inhibition)
Assay type: cell-based
Conditions: Homo sapiens, 72 Hours of culture, CellTiter-Glo, no uridine
Method in brief: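 Low-passage MOLM-13 cells (10^4/well) in RPMI 1640 + 10% FBS exposed to compound (0.5% DMSO final) for 72 h at 37 °C, 5% CO2. Viability read by CellTiter-Glo luminescence; growth reflects de novo pyrimidine synthesis dependent on DHODH.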

Structure (SMILES)	IC50
Fc1c(C2c3[nH]c4ccc(Cl)cc4c3CCN2c2nccc(C(F)(F)F)n2)ccc(-n2ccnc2)c1F (centres unmarked) [Compound 285, 6-chloro-1-[2,3-difluoro-4-(1H-imidazol-1-yl)phenyl]-2-[4-(trifluoromethyl)pyrimidin-2-yl]-2,3,4,9-tetrahydro-1H-pyrido[3,4-b]indole]	2.8 nM
Cc1ccnc(N2CCc3c([nH]c4ccc(Cl)c(F)c34)C2c2ccc(C)c(F)c2F)n1 (centres unmarked) [Compound 196, 6-chloro-1-(2,3-difluoro-4-methylphenyl)-5-fluoro-2-(4-methylpyrimidin-2-yl)-2,3,4,9-tetrahydro-1H-pyrido[3,4-b]indole]	1.8 nM
CN(C)c1ncc(C2c3[nH]c4ccc(Cl)c(F)c4c3CCN2c2nccc(C(F)(F)F)n2)cc1F (centres unmarked) [Compound 160, 5-{6-chloro-5-fluoro-2-[4-(trifluoromethyl)pyrimidin-2-yl]-2,3,4,9-tetrahydro-1H-pyrido[3,4-b]indol-1-yl}-3-fluoro-N,N-dimethylpyridin-2-amine]	3.5 nM
Cc1nc(N2CCc3c([nH]c4ccc(Cl)cc34)[C@@H]2c2ccc(N3CCOCC3)nc2)nc(C(F)(F)F)n1 [Compound 465, (1S)-6-chloro-2-[4-methyl-6-(trifluoromethyl)-1,3,5-triazin-2-yl]-1-[6-(morpholin-4-yl)pyridin-3-yl]-2,3,4,9-tetrahydro-1H-pyrido[3,4-b]indole]	0.6 nM
Oc1cccc(C2c3[nH]c4ccc(Cl)cc4c3CCN2c2nccc(C(F)(F)F)n2)c1F (centres unmarked) [Compound 256, 3-{6-chloro-2-[4-(trifluoromethyl)pyrimidin-2-yl]-2,3,4,9-tetrahydro-1H-pyrido[3,4-b]indol-1-yl}-2-fluorophenol]	3.6 nM
Cc1ccc(C2c3[nH]c4cc(F)c(Cl)cc4c3CCN2c2ncc(F)cn2)cc1 (centres unmarked) [Compound 6, 6-chloro-7-fluoro-2-(5-fluoropyrimidin-2-yl)-1-(4-methylphenyl)-2,3,4,9-tetrahydro-1H-pyrido[3,4-b]indole]	37.6 nM
CN1CCN(c2ncc([C@H]3c4[nH]c5ccc(Cl)cc5c4CCN3c3nc(N4CCN(C)CC4)nc(C(F)(F)F)n3)cn2)CC1 [Compound 479, (1S)-6-chloro-1-[2-(4-methylpiperazin-1-yl)pyrimidin-5-yl]-2-[4-(4-methylpiperazin-1-yl)-6-(trifluoromethyl)-1,3,5-triazin-2-yl]-2,3,4,9-tetrahydro-1H-pyrido[3,4-b]indole]	66.1 nM

Second part, the compound after the results:

IC50	Structure (SMILES)
3.5 nM	Cc1ccc([C@H]2c3[nH]c4ccc(Cl)cc4c3CCN2c2nc(C#N)nc(C(F)(F)F)n2)c(F)c1F [Compound 390, 4-[(1S)-6-chloro-1-(2,3-difluoro-4-methylphenyl)-1,3,4,9-tetrahydro-2H-pyrido[3,4-b]indol-2-yl]-6-(trifluoromethyl)-1,3,5-triazine-2-carbonitrile]
39.8 nM	Cc1cc(C(F)(F)F)nc(N2CCc3c([nH]c4ccc(Cl)cc34)[C@H]2c2ccc(C)c(F)c2F)n1 [Compound 204, (1R)-6-chloro-1-(2,3-difluoro-4-methylphenyl)-2-[4-methyl-6-(trifluoromethyl)pyrimidin-2-yl]-2,3,4,9-tetrahydro-1H-pyrido[3,4-b]indole]
4.1 nM	Cc1cnn(-c2ccc3[nH]c4c(c3c2)CCN(c2nc(C(F)(F)F)nc(C(F)(F)F)n2)[C@H]4c2ccc(C)c(F)c2F)c1 [Compound 529, (1S)-2-[4,6-bis(trifluoromethyl)-1,3,5-triazin-2-yl]-1-(2,3-difluoro-4-methylphenyl)-6-(4-methyl-1H-pyrazol-1-yl)-2,3,4,9-tetrahydro-1H-pyrido[3,4-b]indole]
0.8 nM	CSc1nc(N2CCc3c([nH]c4ccc(Cl)cc34)[C@@H]2c2ccc(C)c(F)c2F)nc(C(F)(F)F)n1 [Compound 389, (1S)-6-chloro-1-(2,3-difluoro-4-methylphenyl)-2-[4-(methylsulfanyl)-6-(trifluoromethyl)-1,3,5-triazin-2-yl]-2,3,4,9-tetrahydro-1H-pyrido[3,4-b]indole]

Source: US20250186437A1, “CARBOLINE COMPOUNDS AND USE THEREOF” (PTC Therapeutics, Inc., priority 2021, published 2025)
